Patent US20190008879A1 (priority 2017, published 2019)

Tests used:
PI3K/Akt pathway = conditions: cited from earlier work
[1] = test system: mammary tumor cell line MCF-7; assay: In vitro antitumor activity on MCF-7, noted by the inventor; assay type: cell-based, human; conditions: MCF-7 strain
periampullary cancer = assay: Preventive consumption of phytin by the patient before the diagnosis; assay type: in vivo, human; conditions: 1.4 g/day phytin solubilized in citric acid, oral, for 5 years before diagnosis
From the text: Before their admission to emergency department, the patient consumed, on a regular basis, with a view to prevention and for 5 years as an oral food supplement, 1.4 g/day of phytin solubilized in citric acid.

[2] = test system: invasive ductal breast cancer; conditions: 6 g/d in addition to chemotherapy, six months, 14 patients; cited from earlier work

O=P(O)(O)O[C@@H]1[C@@H](OP(=O)(O)O)[C@H](OP(=O)(O)O)[C@H](O)[C@H](OP(=O)(O)O)[C@H]1OP(=O)(O)O [myo-inositol 1,3,4,5,6 pentakis phosphate]
antitumor activity compared with phytin (PI3K/Akt pathway): higher than that of phytin | anti-angiogenic action (PI3K/Akt pathway; concentration of 50 μM): anti-angiogenic action by inhibiting the PI3K/Akt pathway

O[C@H]1[C@H](O)[C@@H](O)[C@H](O)[C@@H](O)[C@H]1O [myo-inositol]
in vitro antitumor action [1]: no in vitro antitumor action

phytin
antitumor activity in human in the absence of magnesium chloride (periampullary cancer): does not have antitumor activity in human | cytopenia (leucocyte and platelet quantitative deficiency) [2]: preserved from cytopenia | tumor progression [2]: no impact on tumor progression
